From publication PMC7810697, “Sarcolipin alters SERCA1a interdomain communication by impairing binding of both calcium and ATP” (Scientific Reports, 2021)
Where “and” joins values, the source holds several entries; their conditions need not be identical. Equal values may be shown once. Ends that are not written are not given here.

Columns and labels:
SERCA1a [1] = conditions: deacylation with hydroxylamine; steady state; in membrane or after solubilization by C12E8; cited from earlier work
Source text: Effect on the turnover is less clear as it seems to highly depend on the system used for functional characterization. […] This post-translational modification is also present in pig SLN and presumably in a few other mammals and birds, as judged from the amino-acid sequences. Among the other hundred seq ...

SERCA1a [2] = conditions: cited from earlier work
Source text: (§1) Besides its various roles in protein signalling and addressing, palmitoylation can also regulate oligomerisation processes of membrane proteins. Recent work has shown that other P-type ATPases regulatory subunits like phospholamban (PLB) and phospholemman (PLM) are palmitoylated[16],[17]. Acylation of PLB and PLM is functionally relevant by having an impact on the oligomerisation of the peptides, their association with their dedicated pumps (Ca^2+-ATPase or Na+, K+-ATPase, respectively) and on their lifetime.

[3] = system: protein phosphatase 1a (PP1a); conditions: cited from earlier work
Source text: as §1

protein kinase A (PKA) = conditions: cited from earlier work
Source text: as §1

[4] = molecular target: T1, recombinant SERCA1a (recS1a) (Oryctolagus cuniculus, UniProt P04191); test: Vanadate inhibition of phosphoenzyme formation, recS1a; type: biochemical, rabbit (expressed in S. cerevisiae); conditions: absence of pSLN, phosphorylation 30 s at 0 °C, three independent experiments
T1 construct: BAD (biotin acceptor domain) (C, cleaved yes); made in house; host or cells: Saccharomyces cerevisiae
T1 sequence (P04191 1-994 isoform P04191-2): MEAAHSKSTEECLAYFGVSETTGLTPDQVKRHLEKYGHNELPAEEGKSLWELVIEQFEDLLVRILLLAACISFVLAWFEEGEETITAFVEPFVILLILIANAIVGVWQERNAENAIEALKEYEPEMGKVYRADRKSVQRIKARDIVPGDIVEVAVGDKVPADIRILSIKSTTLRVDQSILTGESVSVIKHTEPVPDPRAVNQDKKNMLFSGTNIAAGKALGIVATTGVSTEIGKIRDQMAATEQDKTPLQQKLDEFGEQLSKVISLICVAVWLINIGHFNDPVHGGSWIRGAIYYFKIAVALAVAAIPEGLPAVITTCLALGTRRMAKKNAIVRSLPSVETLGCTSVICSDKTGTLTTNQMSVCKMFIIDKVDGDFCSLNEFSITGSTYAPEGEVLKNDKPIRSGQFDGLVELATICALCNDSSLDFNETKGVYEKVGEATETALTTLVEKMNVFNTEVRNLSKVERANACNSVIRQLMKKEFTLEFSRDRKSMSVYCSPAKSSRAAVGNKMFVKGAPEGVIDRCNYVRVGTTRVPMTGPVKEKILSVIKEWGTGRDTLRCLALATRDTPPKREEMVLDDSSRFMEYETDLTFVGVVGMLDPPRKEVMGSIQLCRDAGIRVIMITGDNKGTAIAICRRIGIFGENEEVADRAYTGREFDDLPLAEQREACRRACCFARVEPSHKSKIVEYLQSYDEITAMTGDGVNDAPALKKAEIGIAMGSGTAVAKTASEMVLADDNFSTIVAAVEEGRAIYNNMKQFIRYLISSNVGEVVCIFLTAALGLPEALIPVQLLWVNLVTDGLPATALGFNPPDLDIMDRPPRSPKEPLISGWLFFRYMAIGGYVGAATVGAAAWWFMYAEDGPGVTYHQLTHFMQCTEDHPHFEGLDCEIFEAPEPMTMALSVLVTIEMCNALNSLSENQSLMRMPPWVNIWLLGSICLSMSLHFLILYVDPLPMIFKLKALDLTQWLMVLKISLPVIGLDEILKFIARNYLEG
Method: (§2) Transient formation of the phosphoenzyme intermediate was measured after incubation with [γ^32P]ATP followed by acid quenching, and filtration. For most experiments, 50 µL of enzyme at 10 µg/mL in a buffer containing 50 mM Tes-Tris pH7.5, 1 mM KCl, 5 mM MgCl2, 20% glycerol (w/w) and 0.5 mg/mL DDM, supplemented or not with SLN, was stored on ice. Concentrations of EGTA and calcium are specified in figure legends in order to reach the appropriate [Ca^2+]free and therefore the desired starting state for the ATPase. For kinetics of phosphorylation, we initiate reaction by addition of 2 µM [γ^32P]ATP (5 mCi/µmole), and calcium at 100 µM when specified. Reaction was quenched by addition of 2 mL of cold quenching medium (500 mM TCA + 30 mM H3P0_4) under vigorous mixing, and immediately stored on ice for 20–30 min to improve precipitation, a period of time critical for retention of the precipitate on the filter in presence of detergent. This was followed by filtration on GS filters (Millipore, Saint Quentin-Fallavier, France) and careful rinsing of the filters with diluted quenching medium (50 mM TCA + 3 mM H3P0_4). The amount of radioactivity bound to the filter was estimated by liquid scintillation counting (Perkin Elmer TriCarb Counter). When starting from a calcium-deprived state (Fig. 4C,D), EGTA was added only one minute before starting phosphorylation to limit irreversible inactivation of the solubilized ATPase, although the presence of glycerol helps in protecting the enzyme from irreversible inactivation. For dephosphorylation kinetics, 1 mM “cold” Mg.ATP was added after a 30 s period of phosphorylation. For Ca^2+-dependency, we adjust the concentration of free calcium according to the Ca.EGTA constant as mentioned above, before triggering phosphorylation. […] Phosphorylations were done at 0 °C especially for inhibition by vanadate to prevent dissociation of vanadate and limit irreversible inactivation in absence of calcium.

[5] = molecular target: T1, recombinant SERCA1a (recS1a); test: Mg.ATP binding by tryptophan fluorescence; design: species or system rabbit (expressed in S. cerevisiae)
Method: (§3) Intrinsic fluorescence of SERCA1a was measured with a SPEX Fluorolog spectrofluorometer (Horiba/Jobin–Yvon, Longjumeau, France) as described before. Briefly, signals were monitored with excitation and emission wavelength set at 295 and 320 nm, with bandwidths of 2 and 10 nm, respectively. Changes in tryptophan fluorescence were recorded at 20 °C after dilution of protein samples to a final concentration of about 6–7.5 µg/mL into a medium containing 50 mM MOPS-Tris pH 7, 100 mM KCl, 5 mM MgCl2, 20% glycerol (v/v) and 10 mg/mL DDM. In presence of SLN, recS1a and SLN were first mixed together and incubate for 1 h on ice before measurement. In absence of SLN, recS1a is supplemented with 0.07 mg/mL C12E8 to compensate the detergent present with SLN. The Maxchelator program was used for estimating [Ca^2+]free[59] (program available at https://somapp.ucdmc.ucdavis.edu/pharmacology/bers/maxchelator/downloads.htm). The dissociation constant of the Ca.EGTA complex was taken to be 0.4 µM at pH7 and was assumed to be the same in the presence of glycerol.

[6] = molecular target: T1, recombinant SERCA1a (recS1a); test: Calcium binding at equilibrium by tryptophan fluorescence; design: species or system rabbit (expressed in S. cerevisiae); conditions: absence of pSLN, average of three independent experiments
Method: as §3

[7] = molecular target: T1, recombinant SERCA1a (recS1a); test: Steady-state ATPase activity, enzyme-coupled assay; type: biochemical, rabbit (expressed in S. cerevisiae); conditions: absence of pSLN; steady state, NADH-coupled assay; three independent experiments
Method: resuspended in a large volume of pure water and lyophilized to evaporate most of the TFA. The rinsed powder was then suspended in presence of 10 mM HCl to exchange the anionic residual TFA that may interact with the positive charges of the peptide for chloride. This suspension was lyophilized again.
Three additional cycles of – dissolving in pure water / lyophilisation – will allow to eliminate traces of TFA and to get back to a pH compatible with functional tests. For final solubilisation of SLN in detergent, powder was then dissolved in 50% TFE and an amount of detergent to reach a 100:1 mole:mole detergent:SLN ratio. Here, we used C12E8 as it is fully compatible with functional characterization of SERCA1a 23. This suspension was then lyophilized again to evaporate TFE.
Sarcolipins (Palm-SLN or SLN) were finally resuspended at 0.8 mg/mL (about 200 µM) in a 10 mM potassium phosphate buffer pH 7.4, in the presence of 2.5 mg/mL C12E8.
Expression and Purification of recombinant SERCA1a (recS1a)
The yeast expression plasmid pYeDP60-SERCA1a-BAD (WT) and expression in Saccharomyces cerevisiae was described previously 30. Yeast membranes were solubilized by DDM for subsequent purification of recombinant Ca2+-ATPase by Streptavidin affinity chromatography 31. Purified recombinant SERCA1a was recovered in a buffer containing 50 mM MOPS-Tris pH7, 100 mM KCl, 5 mM MgCl2, 2.1 mM CaCl2, 40 % glycerol (v/v) and 0.5 mg/mL DDM, together with some thrombin remaining from the elution procedure. The protein concentration in the purified fraction was in the 0.05 to 0.15 mg/mL range depending on the batch. […]
Steady-state ATPase activity measurements
Measurements were performed using classical enzyme coupled assay. We measured the rate of NADH oxidation in the presence of 0.1 mg/mL lactate deshydrogenase, 0.05 mg/mL pyruvate kinase, 1 mM phosphoenolpyruvate, 0.25 mM NADH (protocol was adapted from 22) and in the additional presence of 2 mg/mL C12E8 to limit time-dependent inactivation of the purified SERCA1a 20,23.

[8] = molecular target: T1, recombinant SERCA1a (recS1a); test: Calcium dependence of phosphoenzyme level; type: biochemical, rabbit (expressed in S. cerevisiae); conditions: absence of pSLN, five independent experiments
Method: as §2

[9] = system: recombinant purified SERCA1a (recS1a); test: Limited proteolysis with proteinase K (SDS-PAGE); type: biochemical, rabbit (expressed in S. cerevisiae); conditions: DDM-solubilized SR; 5 min profile similar to 60 min in native lipids
Method: Yeast-expressed and purified SERCA1a (recS1a) was supplemented with SLN at a mole:mole ratio of 1:10 recS1a:SLN. In absence of SLN, recS1a was supplemented with 0.07 mg/mL C12E8, an amount that corresponds to the detergent brought with chemically synthesized SLN. After 30 min at 20 °C, samples were supplemented with either 1.1 mM EGTA (Ca^2+free ~ 1 mM), or 50 mM EGTA (Ca^2+free ~ 150 nM) and 0.01 mg/mL Tg. After an additional incubation for 10 min at 20 °C, proteolysis was achieved by addition of 0.3 mg/mL proteinase K. Proteolysis was stopped by addition of 1 mM PMSF and incubation on ice for 10 min. After proteolysis arrest, samples were diluted twice in a 4 M-urea containing denaturation buffer, boiled for 60 s, and about 0.75 µg protein were loaded on a 9% SDS-PAGE prepared in the presence of 1 mM Ca^2+[32]. After electrophoresis, gels were stained with Coomassie blue.

native SLN: native rabbit sarcolipin, S-palmitoylated or S-oleoylated on Cys9, co-purified with SERCA1a from SR (MERSTRELCLNFTVVLITVILIWLLVRSYQY; also: Cys9 S-palmitoylated or S-oleoylated; UniProt P42532 1-31, looked up)
effect of deacylation of native SLN on affinity for calcium and Vmax (SERCA1a [1]): no effect

PLB: phospholamban, 52 amino-acid long, with a transmembrane helix and a long cytosolic extension
effect of PLB phosphorylation on SERCA1a inhibition (SERCA1a [2]): release of SERCA1a inhibition without its full dissociation from the pump
effect of PLB palmitoylation (Cys 36) on PP1a affinity [3]: reduces affinity for protein phosphatase 1a (PP1a)
effect of PLB palmitoylation (Cys 36) on PKA affinity (protein kinase A (PKA)): increases affinity for protein kinase A (PKA)

[O]=[V]([O-])([O-])[O-] [orthovanadate, reference compound]
K1/2 (K0.5) for vanadate inhibition, recS1a alone [4]: 1.43 ± 0.08 µM
K1/2 (K0.5) for vanadate inhibition, recS1a alone ([4]; listed as vanadate): 1.43 ± 0.08 µM

Nc1ncnc2c1ncn2[C@@H]1O[C@H](COP(=O)(O)OP(=O)([O-])OP(=O)([O-])O)[C@@H](O)[C@H]1O.[Mg+2] [Mg.ATP, reference compound]
Mg-ATP1/2 (affinity for Mg.ATP), recS1a alone ([5]; absence of pSLN, calcium-deprived (2 mM EGTA), pH 7, 20 °C, DDM, 20% glycerol, three independent experiments): 3 µM and 3.00 ± 0.12 µM
nH for Mg.ATP, recS1a alone ([5]; absence of pSLN, three independent experiments): 0.99 ± 0.04
Mg.ATP concentration sufficient to saturate the SERCA1a site ([5]; in absence of SLN, not in its presence): about 30 µM

[Ca+2] [calcium]
Ca1/2 (tryptophan fluorescence), recS1a alone ([6]; at equilibrium, pH 7, 20 °C, DDM, 20% glycerol): 2.94 ± 0.30 µM and 2.9 µM
nH for calcium (tryptophan fluorescence), recS1a alone [6]: 1.67+/-0.25
Ca1/2 (ATPase activity), recS1a alone [7]: 0.15 ± 0.08 µM
nH for calcium (phosphoenzyme level), recS1a alone [8]: 0.54 ± 0.02
Ca1/2 (phosphoenzyme level), recS1a alone ([8]; phosphorylation 15 s): 0.33 ± 0.03 µM and 0.33 µM

CCCCCCCCCCCCO[C@@H]1O[C@H](CO)[C@@H](O[C@H]2O[C@H](CO)[C@@H](O)[C@H](O)[C@H]2O)[C@H](O)[C@H]1O [DDM, n-dodecyl β-D-maltopyranoside, reference compound]
effect of detergent on proteinase K proteolysis [9]: significantly accelerates proteolysis
